Laboratory results: patent US9328106B2, “Cyclic ether pyrazol-4-yl-heterocyclyl-carboxamide compounds and methods of use” (Genentech, Inc., priority 2012, dated 2016)

The compounds below were run against PIM1 (Homo sapiens (Human), UniProt P11309) (assay: biochemical). Settings: 20 pM PIM1, 1 μM FAM-peptide, 10 μM ATP, 90 minutes at room temperature; read-out: PIM1 LC3K (KI).
PIM1, sequence (P11309 whole entry): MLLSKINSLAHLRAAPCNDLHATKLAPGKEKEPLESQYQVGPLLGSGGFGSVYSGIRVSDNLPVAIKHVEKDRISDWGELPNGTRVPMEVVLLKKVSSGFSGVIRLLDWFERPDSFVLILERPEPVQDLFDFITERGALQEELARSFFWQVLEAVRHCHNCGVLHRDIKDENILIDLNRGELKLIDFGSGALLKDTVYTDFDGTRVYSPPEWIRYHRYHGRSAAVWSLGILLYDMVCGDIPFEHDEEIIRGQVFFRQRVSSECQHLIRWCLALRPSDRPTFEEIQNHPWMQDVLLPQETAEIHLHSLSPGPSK
Format: biochemical
A Ki of 0.174 nM was found for `Cn1ncc(NC(=O)c2nc(-c3c(F)cccc3F)sc2N)c1[C@H]1C[C@@H](O)CCO1` [Example 149, 5-amino-2-(2,6-difluorophenyl)-N-(5-((2R,4S)-4-hydroxytetrahydro-2H-pyran-2-yl)-1-methyl-1H-pyrazol-4-yl)thiazole-4-carboxamide] in this work.
A Ki of 0.001 nM was found for `CCOc1ccc(F)c(-c2nc(C(=O)Nc3cnn(C)c3[C@@H]3CC[C@@H](N)[C@H](F)CO3)cs2)c1F` [Example 285, N-(5-((2S,5R,6S)-5-amino-6-fluorooxepan-2-yl)-1-methyl-1H-pyrazol-4-yl)-2-(3-ethoxy-2,6-difluorophenyl)thiazole-4-carboxamide] in this work.
A Ki of 0.965 nM was found for `Cn1ncc(NC(=O)c2nc(-c3ccccc3OC(F)(F)F)sc2N)c1[C@@H]1CC[C@@H](N)[C@H](F)CO1` [Example 157, 5-amino-N-(5-((2S,5R,6S)-5-amino-6-fluorooxepan-2-yl)-1-methyl-1H-pyrazol-4-yl)-2-(2-(trifluoromethoxy)phenyl)thiazole-4-carboxamide] in this work.
A Ki of 0.01 nM was found for `CO[C@H]1CO[C@H](c2c(NC(=O)c3nc(-c4c(F)ccc(F)c4F)sc3N)cnn2C)CC[C@H]1N` [Example 262, 5-amino-N-(5-((2S,5R,6R)-5-amino-6-methoxyoxepan-2-yl)-1-methyl-1H-pyrazol-4-yl)-2-(2,3,6-trifluorophenyl)thiazole-4-carboxamide] in this work.
A Ki of 0.456 nM was found for `C[C@H]1O[C@@H](c2c(NC(=O)c3nc(-c4c(F)cccc4F)sc3N)cnn2C)CC(F)(F)[C@@]1(C)N` (stereo in doubt) [Example 179, 5-Amino-N-[5-[5-amino-4,4-difluoro-5,6-dimethyl-tetrahydropyran-2-yl]-1-methyl-pyrazol-4-yl]-2-(2,6-difluorophenyl)thiazole-4-carboxamide] in this work.
A Ki of 0.002 nM was found for `Cn1ncc(NC(=O)c2csc(-n3cc4ccccc4n3)n2)c1[C@@H]1CC[C@@H](N)[C@H](F)CO1` [Example 396, N-(5-((2S,5R,6S)-5-amino-6-fluorooxepan-2-yl)-1-methyl-1H-pyrazol-4-yl)-2-(2H-indazol-2-yl)thiazole-4-carboxamide] in this work.
A Ki of 0.085 nM was found for `Cn1ncc(NC(=O)c2csc(-n3ncc4ccccc43)n2)c1[C@@H]1CC[C@@H](N)[C@H](F)CO1` [Example 395, N-(5-((2S,5R,6S)-5-amino-6-fluorooxepan-2-yl)-1-methyl-1H-pyrazol-4-yl)-2-(1H-indazol-1-yl)thiazole-4-carboxamide] in this work.
A Ki of 0.064 nM was found for `Cn1ncc(NC(=O)c2csc(-c3cccc(Cl)c3F)n2)c1[C@@H]1CC[C@@H](N)[C@@H](F)CO1` [Example 248, N-(5-((2S,5R,6R)-5-amino-6-fluorooxepan-2-yl)-1-methyl-1H-pyrazol-4-yl)-2-(3-chloro-2-fluorophenyl)thiazole-4-carboxamide] in this work.
A Ki of 0.132 nM was found for `Cn1ncc(NC(=O)c2csc(-c3cccc(F)c3Cl)n2)c1[C@@H]1CC[C@@H](N)[C@@H](F)CO1` [Example 250, N-(5-((2S,5R,6R)-5-amino-6-fluorooxepan-2-yl)-1-methyl-1H-pyrazol-4-yl)-2-(2-chloro-3-fluorophenyl)thiazole-4-carboxamide] in this work.
A Ki of 0.161 nM was found for `Cn1ncc(NC(=O)c2ccc(F)c(-c3cc(F)ccc3F)n2)c1[C@@H]1CC[C@@H](N)[C@H](F)CO1` [Example 222, N-(5-((2S,5R,6S)-5-amino-6-fluorooxepan-2-yl)-1-methyl-1H-pyrazol-4-yl)-6-(2,5-difluorophenyl)-5-fluoropicolinamide] in this work.
A Ki of 0.424 nM was found for `Cn1ncc(NC(=O)c2nc(-c3c(F)cccc3F)sc2N)c1C1CCCCO1` (stereo not drawn) [Example 104, 5-amino-2-(2,6-difluorophenyl)-N-(1-methyl-5-tetrahydropyran-2-yl-pyrazol-4-yl)thiazole-4-carboxamide] in this work.
A Ki of 0.014 nM was found for `Cn1ncc(NC(=O)c2nc(-c3c(F)cccc3F)sc2N)c1C1CC(F)(F)CC(N)CO1` (stereo not drawn) [Example 122, 5-amino-N-[5-(6-amino-4,4-difluoro-oxepan-2-yl)-1-methyl-pyrazol-4-yl]-2-(2,6-difluorophenyl)thiazole-4-carboxamide] in this work.
